# Test results as given in US20200360305A1 (INSERM (Institut National de la Ssnté et de la Researche …, priority 2017, published 2020).
# Entries after “also recorded” stand apart in the source; their conditions may differ. Like-named read-outs stand apart in the source and are kept apart here.
# What was measured:
# [1] = tested on: autophagy (LC3-I to LC3-II conversion, p62/SQSTM1 degradation); conditions: oral administration (not shown)
# Protocol: Tissue processing for Immunoblotting. […] Tissue extracts were then centrifuged at 12,000 g at 4° C. and supernatants were collected. Protein concentration in the supernatants was evaluated by the bicinchoninic acid technique (#23225, BCA protein assay kit). Protein extracts were run on 4-12% Bis-Tris acrylamide gels (# NP0322, Thermo Fisher Scientific) and electrotransferred to […] polyvinylidene fluoride (PVDF) membranes (#1620177,Bio-Rad). […] Equal protein loading was monitored by probing membranes with a glyceraldeyde-3-phosphate dehydrogenase (GAPDH)-specific antibody (#2118, Cell Signaling Technology). Membranes were developed with suitable horseradish peroxidase conjugates followed by chemiluminescence-based detection with the Amersham ECL Prime (# RPN2232, GE Healthcare and the ImageQuant LAS 4000 software-assisted imager (GE Healthcare, Piscataway, N.J., USA). Quantification was performed by densitometry by means of Image J software. Autophagy was quantified through evaluation of LC3-II/GAPDH ratio and SQSTM1/GAPDH ratio in accordance to guidelines.
# [2] = Excerpt: Mouse experiments Six-to 7-week-old male WT C57Bl/6 were obtained from Envigo, France. Mice were maintained in specific pathogen-free conditions in a temperature-controlled environment with 12-hr light/12-hr dark cycles and received food and water ad libitum. Animal experiments were in compliance with the EU Directive 63/2010 and protocols 2012_069 and APAFIS #5272-2016042112271931v2 were approved by Ethical Committee of the Gustave Roussy Campus and Cordeliers Research Centre respectively. For weight gain experiments, mice were fed high fat diet (#260HF, Safe, France) or were given 30% sucrose solution in tap water.
# [3] = chronic TETA
# Protocol: Glucose and Insulin Tolerance Test. For glucose tolerance test (GTT) mice were fasted O/N for 16 hours. 2.5 g/kg/BW glucose solution in PBS was injected intraperitoneally and blood glucose levels was measured by means of glucometer in tail vein blood. Tail snipping was used to obtain blood. Before snips, the tail end was dipped into Bupivicaine (0.25%) for local anesthesia. For the insulin tolerance test (ITT), mice were starved for 4 hours and a solution of 0.75 U/kg/BW insulin was injected intraperitoneally. Blood glucose is measured at 30, 60, and 120 minutes after glucose or insulin injection.
# [4] = HFD mice, TETA 8 weeks
# Protocol: Plasma cytokine measurements. Plasma was harvested from blood collection tubes by centrifugation at 15,000 rpm for 30 min, and stored at −80° C. Cytokines and levels were measured using a mouse serum adipokine immunoassay kit according to the protocol provided by the manufacturer (Cat. # MMHMAG-44K, EMD Millipore, Temecula, Calif., USA).
# [5] = patients, long-term (decades) administration; cited from earlier work
# [6] = tested on: N-e-acetylated Lysine residues of proteins; test: Quantitative analysis of protein acetylation in tissues (immunofluorescence); conditions: mice
# [7] = tested on: polyamine and acetyl coenzyme A metabolism; test: Metabolomics analysis of tissues (polyamines, acetyl CoA, TETA metabolites); assay type: in vivo, mouse; conditions: for Acetyl coenzyme A (CoA) levels: liver (FIG. 7C); for Acetyl coenzyme A (CoA) levels / Ratio of N1-acetylspermidine over spermidine (polyamine catabolism): mice upon HFD regimen; for Ratio of N1-acetylspermidine over spermidine (polyamine catabolism): liver, heart or muscle (FIG. 7B)
# Protocol: Metabolomics analysis. All standard and reagents used were from Sigma Aldrich except Ammonium carbonate (VWR). For sample preparation, about 30 mg of tissues for each condition were first weighted and solubilized into 1.5 mL polypropylene microcentrifuge tubes with ceramic beads with 1 mL of cold lysate buffer (MeOH/Water/Chloroform, 9/1/1, −20° C.). They were then homogenized three times for 20 s at 5500 rpm using a Precellys 24 tissue homogenator (Bertin Technologies, Montigny-le-Bretonneux, France), followed by a centrifugation (10 min at 15000 g, 4° C.). […] The LC-MS dried extracts were solubilized with 450 μL of MilliQ water and aliquoted in 3 microcentrifuge tubes (100 μL) for each LC method and one microcentrifuge tube for safety. Aliquots for analysis were transferred in LC vials and injected into LC/MS or kept at −80° C. until injection. For sample preparation of polyamines, about 30 mg of tissues for each condition were first weighted and solubilized into 1.5 mL polypropylene microcentrifuge tubes, with 1 mL of cold lysate buffer with 1% sulfosalicylic acid (MeOH /water 1% SSA, 9/1, −20° C.). They were then homogenized three times for 20 s at 5500 rpm using Precellys 24 tissue homogenator (Bertin Technologies, Montigny-le-Bretonneux, France), followed by a centrifugation (10 min at 15000 g, 4° C.). 600 μL of the upper phase of the supernatant was collected and evaporated in microcentrifuge tubes at 40° C. in a pneumatically assisted concentrator (Techne DB3, Staffordshire, UK). The LC-MS dried extracts were solubilized with 300 μL of MilliQ water, centrifugated (10 min at 15000 g, 4° C.), and 50 μL were transferred in polypropylene vial injection for LC method and the rest was transferred in microcentrifuge tube for safety. Aliquots transferred in polypropylene vials were injected into LC/MS or kept at −80° C. until injection. Targeted analysis of CoAs and nucleoside phosphates by ion pairing ultrahigh performance liquid chromatography (UHPLC) coupled to a Triple Quadrupole (QQQ) mass spectrometer was performed on a RRLC 1260 system (Agilent Technologies, Waldbronn, Germany) coupled to a Triple Quadrupole 6410 (Agilent Technologies) equipped with an electrospray source operating in positive mode. The gas temperature was set to 350° C. with a gas flow of 12 L/min. The capillary voltage was set to 3.5 kV.
# 10 μL of sample were injected on a Column XDB-C18 (100 mm×2.1 mm particle size 1.8 μm) from Agilent technologies, protected by a guard column XDB-C18 (5 mm×2.1 mm particle size 1.8 μm) and heated at 40° C. by a pelletier oven.
# The gradient mobile phase consisted of water with 2 mM of DBAA (A) and acetonitrile (B). The flow rate was set to 0.2 mL/min, and gradient as follow: initial condition was 90% phase A and 10% phase B, maintained during 4 min. Molecules were then eluted using a gradient from 10% to 95% phase B over 3 min.
# [8] = tested on: invertebrate model organisms; conditions: spermidine supplementation; cited from earlier work
# [9] = mice, spermidine supplementation; cited from earlier work
# [10] = mice on a high fat diet; cited from earlier work
# [11] = cited from earlier work
# [12] = old mice; cited from earlier work
# [13] = ApoE-/- mice fed a high-fat diet for 20 weeks; cited from earlier work
# [14] = Dahl salt-sensitive rats, high-salt diet, oral supplementation; cited from earlier work
# [15] = in vivo; cited from earlier work
# Drosophila = conditions: cited from earlier work
# [16] = mice; cited from earlier work
# [17] = mice, model of normal tension glaucoma; cited from earlier work
# [18] = old mice; cited from earlier work; remark: listed apart in the source
# [19] = mice with excessive weight gain, chronic TETA (not shown)
# [20] = mice with excessive weight gain (HFD, sucrose, ob/ob)
smiles,measurement,setting,value
"NCCNCCNCCN [TETA, N,N′-Bis(2-aminoethyl)ethane-1,2-diamine]",Signs of autophagy in several mouse organs,[1],induced signs of autophagy
same,Accumulation of intestinal and perigonadal adipose tissue,[2]; [19],reduced accumulation of intestinal and perigonadal adipose tissue
same,Fat accumulation in the liver,[2]; [19],reduced fat accumulation in the liver
same,Weight gain,"[2]; normal mice on a high-fat diet, TETA in drinking water",reduced the accelerated weight gain
same,Weight gain,"[2]; normal mice on a high-sucrose diet (30% sucrose in drinking water), TETA per os 100 mg/kg",reduced the accelerated weight gain
same,Weight gain,[2]; ob/ob mice,reduced the accelerated weight gain
same,Weight gain,"[2]; wild type mice on standard chow, TETA in drinking water or by gavage",failed to affect the physiological weight gain
same,Glucose tolerance test,[3]; WT mice fed a normal diet,had no effect
same,Insulin tolerance test,[3]; WT mice fed a normal diet,had no effect
same,Plasma glucose concentration after intraperitoneal glucose (GTT),[3]; [20],reduced the plasma glucose concentration
same,Transient decrease in glycemia after injection of insulin (ITT),[3]; [20],enhanced the transient decrease in glycemia
same,Plasma C-peptide,[4],prevented the HFD-induced elevation
same,Plasma IGFBP1,[4],prevented the HFD-induced elevation
same,Plasma adiponectin levels,[4],increased the adiponectin levels
same,Plasma gastric inhibitory peptide (GIP),[4],prevented the HFD-induced elevation
same,Plasma insulin,[4],prevented the HFD-induced elevation
same,Plasma leptin,[4],prevented the HFD-induced elevation
same,Plasma plasminogen activator inhibitor-1 (PAI-1),[4],prevented the HFD-induced elevation
same,Plasma resistin,[4],prevented the HFD-induced elevation
same,Side effects,[5],side effects are mild
same,Protein acetylation in heart (cardiomyocytes),[6],reduces protein acetylation; also recorded: reduction in protein acetylation
same,Protein acetylation in liver (hepatocytes),[6],reduces protein acetylation; also recorded: reduction in protein acetylation
"NCCCCNCCCN [Spermidine, spermidine]",N1-acetylspermidine levels,[7]; liver (FIG. 7A) and all mouse organs (data not shown),increase in N1-acetylspermidine levels
same,Acetyl coenzyme A (CoA) levels,[7],acetyl coenzyme A (AcCoA) depletion
same,Acetyl coenzyme A (CoA) levels,[7]; listed as spermidine,reduced acetyl coenzyme A (CoA) levels
same,Ratio of N1-acetylspermidine over spermidine (polyamine catabolism),[7],promote polyamine catabolism
same,Ratio of N1-acetylspermidine over spermidine (polyamine catabolism),[7]; listed as spermidine,increased the ratio
same,Spermidine level in organs,"[7]; mice, after spermidine administration",increase of this polyamine in most organs except plasma
same,Longevity,[8],extends the longevity
same,Longevity,[9],extends the longevity
same,Glucose tolerance,[10],improved
same,Insulin sensitivity,[10],improved
same,Weight gain,[10],reduced weigh gain
same,Cardiac aging,"[11]; aging mice, chronic administration",protects from cardiac aging
same,"Diastolic function, left ventricular elasticity, and mitochondrial function",[11]; old mice,improves
same,Age-induced arterial stiffness,[12],reversed age-induced arterial stiffness
same,Formation of atherosclerotic plaques,[13],alleviated the formation of atherosclerotic plaques
same,Blood pressure,[14],reduced high blood pressure
same,Transition to heart failure,[14],delayed the transition to heart failure
same,Anticancer immune response,[15],enhance the anticancer immune response
same,Age-induced memory impairment,Drosophila,protects from age-induced memory impairment
same,Loss of locomotor activity,Drosophila,protects from
same,Signs of pathology in experimental autoimmune encephalomyelitis,[16],attenuates signs of pathology
same,Retinal degeneration,[17],blunts retinal degeneration
same,Spatial learning and memory capabilities,[18],improves spatial learning and memory capabilities
